US7674825B2, “Dicarboxylic acid derivatives with pharmaceutical properties” (Bayer Aktiengesellschaft, priority 2002, dated 2010)

Key:
arteria saphena = assay: Vasorelaxant action in vitro (phenylephrine-contracted arteria saphena rings); format: cell-based, Rabbits; settings: Oryctolagus cuniculus; rabbit arteria saphena rings, contraction induced by phenylephrine; concentration reducing contraction to 50%
Procedure: Rabbits are anesthetized by intravenous injection of thiopental sodium […] (about 50 mg/kg) and exsanguinated. The arteria saphena is removed and divided into 3 mm wide rings. The rings are individually mounted on in each case one triangular pair of hooks, open at the end, made of 0.3 mm strong special wire (Remanium®). Under a pretension, each ring is transferred into 5 ml organ baths containing a warm, carbogen-aerated Krebs-Henseleit solution at 37° C. having the following composition (mM): NaCl: 119; KCl: 4.8; CaCl2×2 H2O: 1; MgSO4×7 H2O: 1.4; KH2PO4: 1.2; NaHCO3: 25; glucose: 10; bovine serum albumin: 0.001%. The contractility is detected using Statham UC2 cells, amplified and digitalized by means of A/D converters (DAS-1802 HC, Keithley Instruments Munich), and recorded in parallel on linear recorders. Contractions are induced by addition of phenylephrine.
After several (in general 4) control cycles, the substance to be investigated is added in each further passage in increasing dosage, and the height of the contraction achieved under the influence of the test substance is compared with the height of the contraction achieved in the last preliminary passage. From this, the concentration which is necessary in order to reduce the contraction achieved in the preliminary control to 50% (IC50) is calculated. The standard administration volume is 5 μl. The proportion of DMSO in the bath solution corresponds to 0.1%.

Heme-containing sGC = biological target: T1, Heme-containing sGC (Rattus norvegicus, UniProt P20595); assay: Stimulation of recombinant soluble guanylate cyclase (sGC) in vitro, heme-containing enzyme; format: biochemical; settings: for Stimulation (n-fold) Heme-containing sGC Basal: n-fold stimulation of basal activity
T1 construct: made in house; host or cells: Sf9 insect cells (baculovirus)
Procedure: (§1) The investigations on the stimulation of recombinant soluble guanylate cyclase (sGC) and the compounds according to the invention with and without sodium nitroprusside and with and without the heme-dependent sGC inhibitor 1H-1,2,4-oxadiazole-(4,3a)-quinoxalin-1-one (ODQ) were carried out by the method described in detail in the following literature reference: M. Hoenicka, E. M. Becker, H. Apeler, T. Sirichoke, H. Schroeder, R. Gerzer and J.-P. Stasch: Purified soluble guanylyl cyclase expressed in a baculovirus/Sf9 system: stimulation by YC-1, nitric oxide, and carbon oxide. J. Mol. Med. 77 (1999): 14-23.
(§2) Activation of sGC by a test substance is stated as n-fold stimulation of basal activity.

Heme-free sGC = biological target: T2, Heme-free sGC (Rattus norvegicus, UniProt P20595); assay: Stimulation of recombinant soluble guanylate cyclase (sGC) in vitro, heme-free enzyme; format: biochemical; settings: heme-free (Tween 20 0.5%)
T2 construct: made in house; host or cells: Sf9 insect cells (baculovirus)
Procedure: as §1
Heme-free guanylate cyclase was obtained by adding Tween 20 to the sample buffer (final concentration 0.5%).
as §2

T2 sequence (P19686 whole entry partner): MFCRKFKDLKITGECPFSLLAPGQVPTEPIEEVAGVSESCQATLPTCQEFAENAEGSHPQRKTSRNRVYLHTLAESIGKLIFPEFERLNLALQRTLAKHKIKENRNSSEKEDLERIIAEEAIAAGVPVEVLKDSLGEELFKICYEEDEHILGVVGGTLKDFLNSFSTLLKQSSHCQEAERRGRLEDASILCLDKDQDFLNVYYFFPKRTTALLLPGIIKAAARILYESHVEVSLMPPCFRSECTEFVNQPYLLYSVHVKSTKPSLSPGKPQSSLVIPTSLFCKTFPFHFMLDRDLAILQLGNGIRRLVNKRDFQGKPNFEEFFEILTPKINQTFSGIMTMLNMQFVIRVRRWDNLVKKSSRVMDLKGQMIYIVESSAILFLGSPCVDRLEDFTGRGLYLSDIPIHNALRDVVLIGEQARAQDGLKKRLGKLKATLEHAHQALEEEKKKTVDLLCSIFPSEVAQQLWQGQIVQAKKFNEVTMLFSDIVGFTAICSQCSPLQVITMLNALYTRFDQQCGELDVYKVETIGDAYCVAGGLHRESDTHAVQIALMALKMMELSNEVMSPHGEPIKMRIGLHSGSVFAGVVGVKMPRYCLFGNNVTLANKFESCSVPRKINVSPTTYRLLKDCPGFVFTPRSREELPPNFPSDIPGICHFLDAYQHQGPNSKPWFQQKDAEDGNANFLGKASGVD
T2 sequence (P20595 whole entry): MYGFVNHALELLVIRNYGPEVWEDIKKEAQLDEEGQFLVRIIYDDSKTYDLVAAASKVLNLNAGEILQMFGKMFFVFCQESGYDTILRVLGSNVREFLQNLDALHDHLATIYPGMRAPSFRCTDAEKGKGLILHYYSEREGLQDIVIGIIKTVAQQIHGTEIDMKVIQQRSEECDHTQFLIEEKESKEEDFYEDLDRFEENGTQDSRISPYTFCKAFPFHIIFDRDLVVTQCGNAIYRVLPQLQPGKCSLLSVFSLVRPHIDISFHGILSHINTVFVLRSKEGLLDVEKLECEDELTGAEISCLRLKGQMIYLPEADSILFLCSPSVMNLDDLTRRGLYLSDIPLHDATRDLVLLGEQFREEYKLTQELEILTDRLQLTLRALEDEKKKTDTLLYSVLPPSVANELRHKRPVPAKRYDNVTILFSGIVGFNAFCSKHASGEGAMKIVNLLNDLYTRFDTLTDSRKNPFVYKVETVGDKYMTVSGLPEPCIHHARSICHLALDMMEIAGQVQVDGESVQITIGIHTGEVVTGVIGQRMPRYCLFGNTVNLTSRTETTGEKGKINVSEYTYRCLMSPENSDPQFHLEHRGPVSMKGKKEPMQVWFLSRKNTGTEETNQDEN
T1 sequence (P19686 whole entry partner): as the sequence (P19686 whole entry partner) above
T1 sequence (P20595 whole entry): as the sequence (P20595 whole entry) above

Q: O=C(O)CCCCC(/C=C/c1ccccc1OCc1ccc(-c2ccccc2)cc1)Cc1ccc(C(=O)O)cc1 (stereo not shown) [Example 26] was tested. Which IC50 (arteria saphena) did it give?
A: The IC50 was 1.9 nM.

Q: For CCCCCCCCOc1ccccc1/C=C/C(CCCCC(=O)O)Cc1ccc(C(=O)O)cc1 (stereo not shown) [Example 29], which IC50 (arteria saphena) is on record?
A: Its IC50 is 2.5 nM.

Q: With O=C(O)CCCCC(/C=C/c1ccccc1NCc1ccccc1)Cc1ccc(C(=O)O)cc1 (stereo not shown) [Example 30] as the compound, how does the IC50 (arteria saphena) read?
A: The IC50 was 3500 nM.

Q: Which IC50 (arteria saphena) does the source give for O=C(O)CCCCC(/C=C/c1cccnc1OCCCCCc1ccccc1)Cc1ccc(C(=O)O)cc1 (stereo not shown) [Example 34] here?
A: The IC50 was 170 nM.

Q: For O=C(O)CCCCC(/C=C/c1ccccc1OCc1ccc(C2CCCCC2)cc1)Cc1ccc(C(=O)O)cc1 (stereo not shown) [Example 72], which IC50 (arteria saphena) is on record?
A: The IC50 was 0.2 nM.

Q: How did the IC50 (arteria saphena) turn out when Cc1cc(COc2ccccc2/C=C/C(CCCCC(=O)O)Cc2ccc(C(=O)O)cc2)nn1-c1cc(Cl)cc(Cl)c1 (stereo not shown) [Example 76] was run?
A: The IC50 was 5.2 nM.

Q: How did the IC50 (arteria saphena) turn out when O=C(O)CCCCC(/C=C/c1ccccc1OCc1cc2ccccc2s1)Cc1ccc(C(=O)O)cc1 (stereo not shown) [Example 78] was run?
A: The IC50 was 5.8 nM.

Q: With O=C(O)CCCCC(/C=C/c1ccccc1OCc1ccc(-c2csc(C(F)(F)F)n2)cc1)Cc1ccc(C(=O)O)cc1 (stereo not shown) [Example 81] as the compound, how does the IC50 (arteria saphena) read?
A: The IC50 was 3.9 nM.

Q: Which “Stimulation (n-fold) Heme-containing sGC +ODQ (10 μM)” value (Heme-containing sGC; 0.1 μM test compound) does the source give for O=C(O)CCCC[C@@H](CCc1ccccc1OCc1ccc(C2CCCCC2)cc1)Cc1ccc(C(=O)O)cc1 [Example 93] here?
A: The value was 84 n-fold.

Q: And the “Stimulation (n-fold) Heme-containing sGC +SNP (0.1 μM)” value (Heme-containing sGC; 0.1 μM test compound)?
A: Its value is 45 n-fold.

Q: And the “Stimulation (n-fold) Heme-containing sGC Basal” value (Heme-containing sGC; 0.1 μM test compound)?
A: The value was 17 n-fold.

Q: What about the “Stimulation (n-fold) Heme-containing sGC +ODQ (10 μM)” value (Heme-containing sGC; 1.0 μM test compound) of the same compound?
A: Its value is 151 n-fold.

Q: What about the “Stimulation (n-fold) Heme-containing sGC +SNP (0.1 μM)” value (Heme-containing sGC; 1.0 μM test compound) of the same compound?
A: The value was 44 n-fold.

Q: What about the “Stimulation (n-fold) Heme-containing sGC Basal” value (Heme-containing sGC; 1.0 μM test compound) of the same compound?
A: The value was 23 n-fold.

Q: What about the “Stimulation (n-fold) Heme-containing sGC +SNP (0.1 μM)” value (Heme-containing sGC; 10 μM test compound) of the same compound?
A: The value was 54 n-fold.

Q: What about the “Stimulation (n-fold) Heme-containing sGC Basal” value (Heme-containing sGC; 10 μM test compound) of the same compound?
A: The value was 33 n-fold.

Q: What about the “Stimulation (n-fold) Heme-containing sGC +ODQ (10 μM)” value (Heme-containing sGC) of the same compound?
A: The value was 178 n-fold.

Q: And the IC50 (arteria saphena)?
A: Its IC50 is 0.2 nM.

Q: What about the “Stimulation (n-fold) Heme-free sGC +ODQ (10 μM)” value (Heme-free sGC; 0.1 μM test compound) of the same compound?
A: Its value is 392 n-fold.

Q: And the “Stimulation (n-fold) Heme-free sGC Basal” value (Heme-free sGC; 0.1 μM test compound)?
A: The value was 436 n-fold.

Q: And the “Stimulation (n-fold) Heme-free sGC +ODQ (10 μM)” value (Heme-free sGC; 1.0 μM test compound)?
A: The value was 435 n-fold.

Q: What about the “Stimulation (n-fold) Heme-free sGC Basal” value (Heme-free sGC; 1.0 μM test compound) of the same compound?
A: Its value is 476 n-fold.

Q: What about the “Stimulation (n-fold) Heme-free sGC +ODQ (10 μM)” value (Heme-free sGC; 10 μM test compound) of the same compound?
A: Its value is 500 n-fold.

Q: What about the “Stimulation (n-fold) Heme-free sGC Basal” value (Heme-free sGC; 10 μM test compound) of the same compound?
A: Its value is 541 n-fold.

Q: Which IC50 (arteria saphena) does the source give for O=C(O)CCCCC(/C=C/c1ccccc1OCCCCCN1CCCC1)Cc1ccc(C(=O)O)cc1 (stereo not shown) [Example 116] here?
A: Its IC50 is 190 nM.

Q: How did the IC50 (arteria saphena) turn out when O=C(O)CCCCC(COCc1cccc(Oc2ccccc2F)c1)Cc1ccc(C(=O)O)cc1 (stereo not shown) [Example 132] was run?
A: The IC50 was 220 nM.

Q: For O=C(O)CCCCC(CNc1ccccc1OCCCCCc1ccccc1)Cc1ccc(C(=O)O)cc1 (stereo not shown) [Example 150], which IC50 (arteria saphena) is on record?
A: The IC50 was 30 nM.

Q: For O=C(O)CSCCC(/C=C/c1ccccc1OCCCCCc1ccccc1)Cc1ccc(C(=O)O)cc1 (stereo not shown) [Example 164], which IC50 (arteria saphena) is on record?
A: Its IC50 is 580 nM.
